Source: patent US20230285353A1, “A CHEMICAL COCKTAIL DRIVING EXPANSION OF MYOGENIC STEM CELLS” (The Regents of the University of California, priority 2020, published 2023)

Test system: neonatal dermal fibroblast-like cells
Assay: Screening small-molecules for myogenic induction (TnT+ cells)
Type: cell-based, mouse
Conditions: for induction of myogenic cells, factor added individually to FR: basic medium with 20 μM F and R, bFGF 50 ng/ml or AA 50 μg/ml
Description: The next day the original medium was replaced with a screening medium containing small-molecule cocktails: KnockOut DMEM (Thermo Fisher Scientific), 10% knockout serum replacement (Thermo Fisher Scientific), 10% FBS (Hyclone, Inc.), 2 mM GlutaMAX (Thermo Fisher Scientific), 1% nonessential amino acids (Thermo Fisher Scientific), 1% penicillin-streptomycin (Thermo Fisher Scientific) and 20 ng/ml bFGF (Stemgent) containing the various small molecules, including valproic acid ([…]), tranylcypromine (T, 5 μM), forskolin (F, 10 μM), and 5-aza-2'deoxycytidine (5-Aza) (5-aza, 5 μM). The medium was changed once every 2-3 days. After optimizing the cocktail of small molecules and concentrations, the screening medium was replaced with Fb medium for further screening of additional candidates that may improve myogenic efficiency, including ascorbic acid (50 μg/ml, Sigma), BMP4 (20 ng/ml, Stemgent), Insulin (10 μg/ml, Stemgent), IGF-1 (50 ng/ml, R&D Systems), PDGF (50 ng/ml, R&D Systems), and bFGF (50 ng/ml, Stemgent Inc.). For cell immunostaining, cells were fixed in 4% paraformaldehyde for 15 minutes and permeabilized with 0.5% Triton-X 100 in PBS for 15 minutes. Cells were then blocked with 5% donkey serum for 1 hour and incubated overnight at 4° C. with primary antibodies (diluted in 5% donkey serum), including TnT (mouse mAb, DSHB), Myh1E (MF 20, mouse mAb, DSHB), Myh2 (SC-71, mouse mAb, DSHB), Myh3 (F1.652, mouse mAb, DSHB), Myh4 (BF-F3, mouse mAb, DSHB), Myh7 (BA-D5, mouse mAb, DSHB), Myh8 (Rabbit pAb, Thermo Fisher Scientific, PA5-72846), […]7) (dystrophin, mouse mAb, DSHB), MyoD (mouse mAb, DSHB), MyoG (mouse mAb, DSHB), Pax7 (mouse mAb, DSHB), Sox 10 (goat pAb, R&D Systems, AF2864), Ki 67 (rabbit mAb, Abcam, ab16667), FSP1 (rabbit mAb, Sigma, 07-2274), CD 90.2-FITC (rat mAb, Thermo Fisher Scientific, 11-0903-81), P75 (rabbit pAb, Abcam, ab8874) and PDGFR-α (rat mAb, Thermo Fisher Scientific, 13-1401-82). Then appropriate Alexa Fluor 488- or Alexa Fluor 546- or Alexa Fluor 647-conjugated secondary antibodies (Thermo Fisher Scientific) were used for 1 hour at room temperature.

Row | Compound | induction of myogenic cells, factor added individually to FR | other results
1 | basic fibroblast growth factor [bFGF] | significantly enhanced | –
2 | O=C1O[C@H]([C@@H](O)CO)C(O)=C1O [AA, ascorbic acid] | significantly enhanced | –
3 | Cc1cccc(-c2[nH]ncc2-c2ccc3ncccc3n2)n1 [R, RepSox] | – | efficiency of CiMC expansion from dermal cells with single agent (F or R alone): almost negligible
4 | Nc1ncn([C@H]2C[C@H](O)[C@@H](CO)O2)c(=O)n1 [5-Aza, 5-aza-2′deoxycytidine] | – | induction of TnT+ cells (5-Aza treatment of dermal cells): did not show any significant induction
